Measurements reported in patent US12616663B2, “Plant-derived exosome-like nanoparticles inhibit bacterial pathogenicity” (priority 2019, dated 2026).

Legend:
hemagglutinin (HA) mRNA = format: cell-based, Porphyromonas gingivalis
[1] = system: outer membrane protein (OMP) mRNA; format: cell-based, Porphyromonas gingivalis
[2] = system: P. gingivalis total cell lysates; assay: SPR: P. gingivalis total cell lysates run over immobilized liposomes; format: binding, Porphyromonas gingivalis; settings: LIP-1 sensor, total cell lysates as analyte
Description: (§1) Liposome preparation. Total lipids from ginger exosome-like nanoparticles (GELNs) were extracted with chloroform:methanol (2:1, v/v). Thin layer chromatography (TLC) was performed with standard PA(34:2). The corresponding PA band was excised from the TLC plate and remaining bands were pool together. GELNs total lipids, PA depleted lipids and PA(34:2) were completely dried under stream of nitrogen gas. The lipid film was suspended in HEPES-buffered saline (HBS) running buffer (20 mM HEPES, 150 mM NaCl, pH 7.4) and gently vortexed and sonicated for 10 minutes until clear solution was formed. The liposome suspension was extruded through a poly carbonated membrane filter syringe with pore size of 100 nm. The size of liposome was confirmed by NanoSight NS300 (Malvern Panalytical Inc, MA, USA). Total lipids were determined by measuring total phosphate levels.
Surface Plasmon Resonance (SPR). SPR experiments were conducted on an OPENSPR™ (Nicoya, Lifesciences, ON, CA). All experiments were carried on LIP-1 sensor (Nicoya, Lifesciences). Tests were run at flow rate of 20 μl/minute using HBS running buffer (20 mM HEPES, 150 mM NaCl, pH 7.4). First, LIP-1 sensor chip was cleaned with Octyl 0-D-glucopyranoside (40 mM) and CHAPS (20 mM). […] The sensograms were analyzed using TRACEDRAWER™ brand kinetic Analysis software. […]

[3] = target: T1, lysine specific (Kgp) gingipain (Porphyromonas gingivalis, UniProt B2RLK2); format: cell-based; settings: GELNs and GELN lipids 2×10^8 and 4×10^8 particles/ml vs PBS control; PA(34:2), aly-miR159a vs control
T1 construct: endogenous in cells; host or cells: Porphyromonas gingivalis, BugBuster lysate of treated bacteria

fimbrillin (fimA) = assay: fimA expression (real-time PCR, western blot); format: cell-based, Porphyromonas gingivalis; settings: GELNs, total lipids or PA (34:2) 6 hours vs DMSO
Description: (§2) RNA isolation and quantitative real time PCR (qRT-PCR). Total RNA was isolated from P. gingivalis and TIGK cells using TRIZOL™ brand reagent according to the manufacturer's protocol (Invitrogen). RNA (1 μg) was converted into cDNA with ISCRIPT™ brand cDNA synthesis kit (Bio-Rad, Hercules, California, United States of America). qRT-PCR was performed for quantification of gene expression, cDNA samples were amplified with SSOFAST™ EVAGREEN® Supermix brand qRT-PCR cocktail in CFX96 Real-time PCR system (Bio-Rad). The mRNA expression was quantified by ΔΔCt method using 16S rRNA expression as an internal control for bacterial gene expression.

[4] = system: HBP35 synthetic peptide (functional domain of hemin binding protein 35); assay: SPR: HBP35 synthetic peptide as analyte over immobilized liposomes; design: species or system Porphyromonas gingivalis; settings: liposomes immobilized on LIP-1 sensor; non-specific peptide as negative control
Description: as §1, with “The size of liposome was confirmed by NanoSight NS300 (Malvern Panalytical Inc, MA, USA).” left out
Surface Plasmon Resonance (SPR). […] The sensograms were analyzed using TRACEDRAWER™ brand kinetic Analysis software.
Whether the HBP35 synthetic peptide directly bound to PA (34:2) and/or PA (34:1) of GELNs lipids was also tested. […] The lipid-protein interactions were determined by SPR sensograms. Fluorescent confocal micrographs of P. gingivalis labelled with PKH67 (green fluorescence) and GELNs and LipidG liposomes were labelled with PKH26 (red fluorescence). […] Particles and liposomes taken up by P. gingivalis were also quantified by flow cytometry. […]

[5] = system: P. gingivalis invasion into TIGK cells; assay: P. gingivalis invasion, antibiotic protection assay (CFU); format: cell-based, Porphyromonas gingivalis; human TIGK cells; settings: GELNs total lipids or PA (34:2) vs DMSO control; miRNA-transduced bacteria
[6] = system: AraC transcription factor mRNA; format: cell-based, Porphyromonas gingivalis
[7] = system: rod shape determining protein (RodA) mRNA; format: cell-based, Porphyromonas gingivalis
[8] = system: arginine-specific (Rgp) gingipain; assay: Gingipain proteolytic activity (N-benzoyl-L-arginine-pNA); format: cell-based, Porphyromonas gingivalis; settings: GELNs and GELN lipids 2×10^8 and 4×10^8 particles/ml vs PBS control; PA(34:2), aly-miR159a vs control
Description: Gingipain proteolytic activity. The proteolytic activity of arginine-specific (Rgp) and lysine specific (Kgp) gingipain was measured. P. gingivalis was cultured to mid-log phase and treated with and without GELNs (2.0-4.0×10^8 particles/ml) for 6 hour. The bacterial cells were collected by centrifugation at 5000 g for 10 minutes, washed, and lysed with BUGBUSTER® brand lysis reagent (Millipore Sigma, Burlington, MA, USA). The chromogenic p-nitroanilide substrates N-benzoyl-L-arginine-pNA or toluenesulfonyl-glycyl-prolyl-L-lysine-pNA (Sigma) were used to measure RgpA/B and Kgp respectively. Bacterial cell lysates (50 μl) were pre-incubated with assay buffer containing 200 mM Tris-HCl, 5 mM CaCl2/150 mM NaCl and supplemented with 10 mM cysteine in 96-well plate, incubated at 37° C. for 10 minutes, and 0.5 mM of specific substrate was added to each well. The rate of substrate hydrolysis and accumulation of p-nitroanillide was monitored spectrophotometrically at 405 nm. The enzyme activity was calculated and given as mOD/min/μl.

P. gingivalis [9] = assay: Bacterial growth, optical density at 600 nm; format: cell-based, Porphyromonas gingivalis
Description: Bacterial strain and growth condition. P. gingivalis 33277 was cultured in tryptic soy broth supplemented with yeast extract (1 mg/ml), hemin (5 μg/ml) and menadione (1 μg/ml) and incubated at 37° C. in anaerobic chamber (85% N2, 10% H2, 5% CO2). S. gordonii DL1 was cultured in brain-heart infusion broth media containing 0.5% yeast extract and incubated at anaerobically at 37° C.
Bacterial growth. […] P. gingivalis and S. gordonii growth was determined by measuring optical density at 600 nm.

[10] = system: T9SS family members porK, porL, porM, porN, porP, porQ, porT, porV, porW, porX, porY, and sov; assay: qPCR of T9SS family member expression; format: cell-based, Porphyromonas gingivalis; settings: GELNs 4.0×10^8 particles/ml, lipids from 4.0×10^8 particles, 5 μg PA (34:2) 6 hours; miRNAs 24 hours vs scrambled
Description: as §2
To further determine the molecular mechanisms underlying GELN-mediated inhibition of P. gingivalis gliding motility, the roles of GELNs, GELNs lipids, and GELN-derived miRNAs in modulating the expression of genes related to T9SS were determined. P. gingivalis was treated with GELNs (4.0×10^8 particles/ml) and GELNs lipids derived from 4.0×10^8 particles and 5 μg of PA (34:2) for 6 hours, and miRNAs aly-miR159a, gma-miR166u, and gma-miR166p were transduced into P. gingivalis by incubation for 24 hours. […] Further, it was determined that aly-miR159a-3p has potential binding sites in the T9SS C-terminal target domain containing protein PGN_0152; see FIG. 8H).

P. gingivalis [11] = assay: Gliding motility in U shaped glass tube with 0.2% agar; format: cell-based, Porphyromonas gingivalis; settings: GELNs 4.0×10^8 particles/ml, PA (34:2) 5 μg/ml vs PBS; miRNAs vs scrambled miRNA; 48 hours
Description: Gliding motility. Gliding motility of P. gingivalis was measured. P. gingivalis was reacted with GELNs (4×10^8 particles/ml) or total lipids extracted from GELNs or miRNAs such as aly-miR-159a-3p, gma-miR166u, and gma-miR166p. A sterile “U” shaped glass tube containing 0.2% agar as suspension medium was produced. P. gingivalis (100 μl) was inoculated one edge of the tube and incubated at anaerobic chamber for 48 hours, the location of bacteria was visualized by cloudiness, and distance movement of P. gingivalis was calculated.
Transferring gingipain from intracellular locations to the cell surface is a critical step in the pathogenesis of P. gingivalis. Gingipains are synthesized with an N-terminal signal peptide targeting them to the Sec translocon where they are exported through the outer-membranes via a novel secretion system referred to as type IX Secretion System (T9SS). T9SS plays a critical role in bacterial gliding motility that could contribute to P. gingivalis pathogenesis. Therefore, it was determined whether GELNs, GELN-derived miRNAs, and/or GELN lipids could play a role in inhibition of gliding motility of P. gingivalis. P. gingivalis were pretreated with GELNs (4.0×10^8 particles/ml) or PA (34:2; 5 μg/ml) or transduced with GELN-derived aly-miR159a, gma-miR166u, or gma-miR166p. […]

[12] = system: P. gingivalis attachment to TIGK cells; assay: Attachment of P. gingivalis to epithelial cells (ELISA, confocal microscopy); format: cell-based, Porphyromonas gingivalis; human TIGK cells; settings: GELNs vs PBS; total lipids (from 4.0×10^8 particles), 50 nM PA (34:2) vs DMSO; miRNAs vs scrambled control
Description: Culture of TIGK cells. Human telomerase immortalized keratinocytes (TIGKs) derived from gingival epithelium were obtained from Dr. Lamont Laboratory and maintained at 37° C. and 5% CO2 in DERMALIFE®-K brand serum free culture medium (Lifeline Cell Technology, Carlsbad, California, United States of America).
Attachment to epithelial cells. The amount of P. gingivalis attachment to the surface of gingival epithelial cells were determined. Briefly, telomerase immortalized gingival keratinocytes (TIGKs), derived from primary gingival epithelial cell lines, were cultured in 96-well plates for 24 hours. Then, the cells were fixed with 5% buffered formalin for 1 hour, and washed with PBS. […] Cells were washed with PBS to remove non-adherent bacteria. Then, wells were incubated with P. gingivalis whole-cell antibodies (1:10,000) at 37° C. for 1 hour, then washed with PBS. Binding was detected with a secondary horse radish peroxidase (HRP)-anti-rabbit antibody (1:5,000) and 3,3′,5,5′-tetramethylbenzidine substrate (Sigma), and recorded at 450 nm.
Then, the TIGK cells were fixed with 5% buffered formalin for 10 minutes. P. gingivalis cells were stained with an antibody raised against P. gingivalis (1:1000 dilution) incubated for 3 hour at room temperature. After extensive washing with PBS, cells were incubated with ALEXAFLUOR® 568-conjugated IgG (1:5000 dilution) for 1 hour at room temperature. […]

`CCCCC/C=C\C/C=C\CCCCCCCC(=O)O[C@H](COC(=O)CCCCCCCCCCCCCCC)COP(=O)(O)O` [PA (34:2), 1-palmitoyl-2-linoleoyl-sn-glycero-3-phosphate] was tested, and the “hemagglutinin (HA) mRNA expression” value (hemagglutinin (HA) mRNA) was “not significant”, the “outer membrane protein (OMP) mRNA expression” value [1] was “inhibited” and the “interaction of P. gingivalis proteins with immobilized nanoparticles (SPR sensograms)” value [2] was “able to interact”. The “lysine-specific (Kgp) gingipain activity” value [3] was “contributed to inhibit”, the “fimA expression (mRNA and protein levels)” value (fimbrillin (fimA)) was “significantly decreased” and the “direct interaction with HBP35 synthetic peptide (SPR sensogram peaks)” value [4] was “directly interacted”. For the same compound, the “P. gingivalis invasion into TIGK cells” value [5] was “significant decrease”, the “AraC mRNA expression” value [6] was “inhibited” and the “RodA mRNA expression” value [7] was “inhibited”. For the same compound, the “arginine-specific (Rgp) gingipain activity” value [8] was “contributed to inhibit”, the “concentration at which P. gingivalis growth was inhibited” value (P. gingivalis [9]; 0-50 μg/ml tested, 24 hours, very low concentration compared to other lipid compounds) was 5 µg/mL and the “T9SS family members whose expression was significantly inhibited” value [10] was 9/12. For the same compound, the “gliding motility of P. gingivalis” value (P. gingivalis [11]) was “significantly inhibited the motility” and the “surface attachment of P. gingivalis to TIGK cells (ELISA)” value [12] was “significantly inhibited surface attachment”.

For “WPRVGQLFIALDQTLGIPGFPTFSVCRME [HBP35 synthetic peptide]”, the “blocking of GELN lipid-mediated inhibition of P. gingivalis growth” value (P. gingivalis [9]; GELN total lipids (4.0 and 6.0×10^8 particles) pre-incubated with peptide) was “significantly blocked” and the “blocking of PA-mediated inhibition of P. gingivalis growth” value (P. gingivalis [9]; PA (34:2) pre-incubated with peptide) was “significantly blocked”.
